Measurements from PMC7570852, “Ruthenium(II)/(III) DMSO-Based Complexes of 2-Aminophenyl Benzimidazole with In Vitro and In Vivo Anticancer Activity” (Molecules, 2020).

Tests used:
[1] = test system: Bax gene expression; assay: Real-time qPCR of liver tissue, Bax; type: in vivo; settings: liver tissue of EAC-bearing mice, vs untreated
Method: (§1) RNA was isolated from liver tissues using a RNeasy Mini kit. The integrity and purity of RNA were assessed by 1% agarose gel electrophoresis and nanodrop, respectively. The obtained RNA was reverse transcribed to yield cDNA using Quantiscript reverse transcriptase. Specific primers for Bax, caspase 3, and Bcl2 genes in addition to the housekeeping gene, β actin were designed by the Primer 3 web-based tool based on the published mice sequences (Table 5). Quantitative real-time PCR (qPCR) was performed using QuantiTect SYBR Green qPCR Master Mix in a StepOnePlus real-time PCR system and the melting curve condition and fold change calculation were done as previously described.

[2] = test system: MCF7 cells; assay: DNA fragmentation (agarose gel), MCF7; type: cell-based, human; settings: MCF7, 117.6 µg/mL, 4 h
Method: (§2) MCF7 and Caco2 cells were collected and genomic DNA was extracted using a Gene JET genomic DNA extraction kit following the manufacturer’s protocol (Thermo Scientific, #K0721). The extracted DNA samples were run on a 1.5% agarose gel at 50 V for 2 h and the fragment pattern was visualized by ethidium bromide staining under a UV transilluminator.

[3] = test system: caspase 3 gene expression; assay: Real-time qPCR of liver tissue, caspase 3; type: in vivo; settings: liver tissue of EAC-bearing mice, vs untreated
Method: as §1

[4] = test system: Bcl2 gene expression; assay: Real-time qPCR of liver tissue, Bcl2; type: in vivo; settings: liver tissue of EAC-bearing mice, vs untreated
Method: as §1

[5] = Maximum tolerated dose in healthy mice; type: in vivo
Method: These mice were examined daily for any sign of toxicity and weighed every two days. […] Therefore, doses of 6, 12, and 18 mg/kg were used in subsequent experiments.

[6] = test system: CT DNA (EB-DNA adduct); assay: Ethidium bromide (EB-DNA) competitive fluorescence assay; type: binding, calf; settings: [DNA] = [EB] = 5 μM
Method: The binding affinity of the metal complexes towards CT DNA was evaluated using competitive fluorescence studies. CT DNA pretreated with ethidium bromide (EB) ([DNA] = [EB] = 5 μM) in Tris-HCl/NaCl buffer (pH = 7.2) was incubated with the complexes in concentrations of 0–90 μM. […] The quenching of EB-DNA adduct fluorescence was followed by monitoring the emission spectra in the wavelength range of 530–650 nm. Upon addition of the metal complexes to the EB-DNA adduct, the quenching binding constant (Kq) at λ = 585 nm is determined from the Stern-Volmer Equation (2):I0/I = 1 + Kq[Q](2) where I0 and I are the fluorescence intensities of EB-DNA in the […] of the metal complexes, respectively, [Q] is the concentration of the tested compounds, and Kq is the quenching constant calculated from the slope of the straight line obtained from plotting Io/I vs. [Q]. In addition, the apparent binding constant can be calculated from Equation (3):KEB[EB] = Kapp[Q](3) where KEB = 1 × 10^7 M^−1 [EB] is the ethidium bromide concentration (5 μM) and [Q] is the concentration of the quencher that provides a 50% intensity reduction of the initial EB-DNA adduct.

[7] = Cyclic voltammetry; type: physicochemical; settings: 10^−3 M in CH2Cl2/DMSO, 0.1 M (Bu4N)PF6, scan rate 50 mVs^−1
Method: Elemental analyses (C, H, N) were performed by the Microanalysis unit in the Department of Chemistry at Simon Fraser University. Infrared spectra (FTIR) were performed on a JASCO 4100 FTIR spectrophotometer in the 4000–400 cm^−1 range using a KBr disc. NMR (^1H and ^13C) spectra were recorded in DMSO-d6 solvent using a Bruker 400 MHz instrument. The 2D NMR analysis (^1H–^1H COSY) was performed on a Jeol 500 MHz NMR, at Mansoura University. ESI/APCI HRMS data were acquired on a Thermo Scientific Exactive Plus Orbitrap mass spectrometer. Electronic spectra (in DMSO, 200–900 nm) were measured on a JASCO 630 V spectrophotometer. Emission spectra of the complexes were measured on a Jenway model 6285 spectrofluorimeter for excitation and emission spectra, 200–700 nm. The magnetic susceptibility of the complexes was measured on a Johnson Matthey magnetic susceptibility balance. […] A microplate reader (StatFax-2100, Awareness Technology, Inc., Palm City, FA, USA), Attune flow cytometer (Applied Biosystems, Foster City, CA, USA), Quawell nanodrop Q5000 (San Jose, CA, USA), StepOnePlus real time PCR system (Applied Biosystems, Foster City, CA, USA), and CO2 incubator (NuAire In-Vitro Cell, Plymouth, MN, USA) were used in biological studies.

[8] = Median lethal dose (LD50) determination; type: in vivo; settings: mice, intraperitoneal, mortality after 24 h
Method: The LD50 was estimated by the method of Enegide. Briefly, different concentrations of compound (2) was prepared by dissolving a certain weight in 2% DMSO and completed with sterile saline then vortexed and left for 5 min until the solution was clear. Three hundred µL of each concentration (10, 20, 40, 60, 80, 100, 120, and 140 mg/kg) was injected intraperitoneally to eight groups of mice (each one containing four mice), then mortality was recorded after 24 h.

[9] = Solution stability by UV-Vis spectroscopy; type: physicochemical; settings: 4% DMSO, 96% PBS, pH 7.4, over 24 h
Method: Stability studies of complexes (1) and (2) were carried out by UV-Vis spectroscopy in the 200–900 nm range. […] The electronic spectra for the solutions were measured over 24 h.

[10] = test system: Caco2 cells; assay: DNA fragmentation (agarose gel), Caco2; type: cell-based, human; settings: Caco2, 117.6 µg/mL, 4 h
Method: as §2

## CS(C)=O.Nc1ccccc1-c1nc2ccccc2[nH]1.O.[Cl][Ru]([Cl])[Cl] [(2), [Ru(III)Cl3(DMSO)(Hapbim)]·H2O]
[1]
  Bax mRNA level: significant increases
[2]
  DNA fragmentation: distinct DNA laddering
[3]
  caspase 3 mRNA level: significant increases
[4]
  Bcl2 gene expression: significant dose-dependent reduction
[5]; healthy mice, 6, 12 and 18 mg/kg i.p., until the 12th day
  toxicity on repeated dosing: No weight loss or signs of toxicity
[5]; healthy mice, 30 and 40 mg/kg i.p.
  toxicity on repeated dosing: toxic after 3-5 days and all the animals were dead on the fifth day
[6]; KEB = 1 × 10^7 M^−1
  Kapp (apparent binding constant): 1.72 ± 0.28 × 10^7 M^−1
[6]; Stern-Volmer, 585 nm
  Kq (quenching constant): 8.64 ± 0.15 × 10^3 M^−1
[7]
  E1/2 (Ru(II)/Ru(III) redox couple): −295 mV
[8]
  LD50: 60 mg/kg
[9]
  solution stability (UV-Vis spectral change): changes in absorption bands near 288, 326, and 690 nm after 1 h
[10]
  DNA fragmentation: distinct DNA laddering
